The subject of series [1] is core clock genes (Per2, Bmal1, Cry1, Cry2) and gluconeogenic genes (Pckl, G6Pc) in liver. The series can be described thus: 24 hour gene expression studies, liver mRNA by RT-qPCR. The following applies: 50 mg/kg PO BID. Format: in vivo, mouse. From the text: Male C57Bl/6J DIO mice were purchased at 17 weeks of age (The Jackson Laboratory, Sacramento, Calif.) and acclimated for a 2 week period before being used for the experiment. Overall group size was 15 per treatment, divided into 5 time-points to give a final group size of 3 mice.
In total, each mouse received 5 doses of compound over the course of the experiment. Mice were weighed and randomly assigned to each treatment based on weight the evening before the commencement of the study. Beginning on Day 3 at 3:00 PM, a group of animals from the vehicle and Compound 72-treated groups were euthanized using CO2 asphyxiation, 50 mg of liver, epididymal fat, and skeletal muscle, respectively, were excised and placed in tube containing 500 μl of RNALater. This procedure took place for the remainder of the time-point groups at their given harvest times. Plasma samples were also taken for each animal and frozen, to be used for later measurement of compound levels.
E.Z.N.A.® HP Total RNA Isolation Kits (R6812-01 and the protocol described in the Manual, Revised 2010) were utilized to prepare and isolate RNA from the liver samples. To prepare the RNA samples, 10-30 mg of sample was removed from RNA-Later and placed in a 1.5 ml microfuge tube. GTC lysis buffer (700 μl) was added to the tissue, which was homogenized with a rotor-stator homogenizer (e.g. Tissue-Tearor, Model #985370 BioSpec Products with 4.5 mm probe, Cat. #985370-04), and then centrifuged at full speed (≥13,000×g) for 5 minutes. The cleared supernatant was transferred by pipetting to a DNA Clearance Column Pre-inserted in a 2 mL Collection Tube. The assembled column was centrifuged at 13,000×g for 1 minute, and the flow-through was saved. An equal volume (700 μl) of 70% ethanol was added to the lysate and mixed. The sample was then applied to a HiBind RNA spin column placed into a 2 ml collection tube, which was centrifuged at 10,000×g for 60 seconds at room temperature. RNA Wash Buffer I (250 μl) was added by pipetting directly onto a new HiBind RNA column inserted in a 2 ml collection tube. The assembled column was centrifuged at 10,000×g for 60 seconds. The RNA column was placed into a new 2 ml collection tube. DNase I stock solution is pipetted (75 μl) directly onto the surface of the HiBind RNA resin in each column (Using DNAse Digestion with RNase Free DNase Set (E1091): for each HiBind RNA column, the DNase I stock solution was prepared as followed: E.Z.N.A.® DNase I Digestion Buffer 73.5 μl, RNase Free DNase I (20 Kunitz/μl) 1.5 μl=Total Volume 75 μl). The column with bound RNA was incubated at room temperature (25-30° C.) for 15 minutes. RNA Wash Buffer I (500 μl) was added to the column and placed on a bench top for 2 minutes. After centrifuging at 10,000×g for 60 seconds, discarding the flow-through, 500 μl of RNA Wash Buffer II was added and centrifuged at 10,000×g for 60 seconds. Another 500 μl of RNA Wash Buffer II was added and the column assembly was centrifuged at 10,000×g for 60 seconds. The column was centrifuged for 2 minutes at maximum speed to completely dry the HiBind matrix. The column was placed in a clean 1.5 ml microcentrifuge tube and 40-70 μl of molecular biology grade water is added. […]
RediPlate 96 RiboGreen RNA Quantification Kit (Invitrogen) RediPlate standard curve was prepared by transferring 20 l reconstituted RNA standard to a RediPlate well reconstituted in 180 l RediPlate TE buffer. […]
For orientation: Quantitative PCR measures a nucleic acid by following its amplification.

Series [2] concerns db/db mouse model of type II diabetes. Kind of series: Compound 72 administered over 7 days in db/db mice (glucose, insulin, compound levels). It counts as in vivo. Conditions: 50 mg/kg PO QD 7 days. From the text:
(§1) Significance was accepted when p<0.05.

For another series, the system named is C57/Bl6J DIO mice. Kind of series: Compound 72 in diet-induced obesity (DIO) mouse model. Format: in vivo. Conditions: 100 mg/kg PO QD 7 days.
From the text: Male C57/Bl6J DIO mice were obtained from The Jackson Laboratory (Sacramento, Calif.). […] Animals were accustomed to these conditions for at least 2 weeks before experimentation and used at approximately 24 weeks of age.
as §1

Series [3] relates to db/db mouse model of type II diabetes. Kind of series: Increasing dosages of Compound 72 over 7 days in db/db mice. It counts as in vivo.
From the text: as §1

Series [4] can be described thus: Pharmacokinetic analysis in SD rats. Format: in vivo. The following applies: plasma; rat; 50 mg/kg P.O. Here is the method:
Male SD rats (weighing 250-300 g, Charles River Laboratories) were used for the experiment with n=4 rats for each experimental group. […] Blood was collected at the following time points after administration: 15, 30, 60, 90 minutes, 3, 6, 12 and 24 hours. A pre-dose sample was also collected. Animals were cannulated by technical staff at Charles River, prior to delivery at Reset. Whole blood (0.3 ml) was collected from a cannula in the right common jugular vein at each time-point. The whole blood was transferred to an EDTA tube, and then centrifuged at 5400 rpm for 5 minutes at 4° C. The resultant plasma was frozen using dry ice and then stored at −80° C. until ready for assay. 0.9% Sodium Chloride (0.3 ml) was administered for fluid replenishment after each blood draw. 0.1 ml of Sodium Heparin (500 IU/ml) was used as a lock solution after the 12 hr time-point. Samples were assayed as described above.

In series [5] the test system is core clock gene mRNAs in liver. Kind of series: Single dose at peak or nadir of Cry1 expression, liver core clock gene mRNAs. Format: in vivo, mouse. The following applies: single dose at ZT0 (peak) or ZT10 (nadir); liver 7.5 hours later. The protocol:
For compounds that interact directly with the core clock mechanism, the time of dosing may be critical for maximizing their effects. […] The former (ZTO) is coincident with the peak of Cry1 and Bmal1 protein in mouse liver and the latter (ZT10) corresponds to the approximate nadir of Cry1 and Bmal1. Liver tissue was taken 7.5 hours later for each, and the samples were examined for core clock gene mRNAs by RT-qPCR.

For the compound `O=C1NCCN1CC(O)Cn1c2ccc(F)cc2c2cc(F)ccc21` (stereo not drawn) [Compound 72, 1-(3-(3,6-difluoro-9H-carbazol-9-yl)-2-hydroxypropyl)imidazolidin-2-one], the “Cry2 mRNA in liver (daytime peak)” value in series [1] (C57Bl/6J DIO and Balb/c mice) is listed as “strongly attenuated”. In series [1] (C57Bl/6J DIO and Balb/c mice, over 24 hours, vs vehicle), the “Per2 mRNA in liver” value was “suppressed”. For the same compound, in series [1] (C57Bl/6J DIO mice, relative to vehicle), the “circadian pattern of mRNAs for gluconeogenic genes Pckl and G6Pc” value was “substantially altered”. Besides, in series [1] (both strains, at ZT8 and 32 hours after ZT0, vs vehicle), the “Bmal1 mRNAs in liver” value was “substantially increased”. Further, the “Cry1 mRNA in liver” value in series [1] (during its peak of expression in the dark period) is recorded as “suppressed”. In addition, the OGTT glucose course entry in series [2] (db/db mice) is reported as “lower than the vehicle control group”. For the same compound, in series [2] (vs vehicle), the “reduction of HOMA-IR” value was 33%, the “reduction of insulin at t=0” value is 20% and the “reduction of insulin at t=2 hr” value was 21%. Further, in the series on C57/Bl6J DIO mice, the OGTT glucose course result was “much lower than the vehicle control group” and the “glucose AUC from OGTT” value is 17055+/−769.1 units. Besides, the “reduction of HOMA-IR compared to vehicle” value in series [3] (100 mg/kg PO QD 7 days) came to 34%. In series [3] (10, 50, 100 mg/kg PO QD 7 days), the OGTT glucose excursion result is listed as “dose dependent effect on glucose excursion”. For the same compound, the “% AUC extrapolated” value in series [4] is recorded as 3.3%. Also, the “impact on core clock mRNAs, dosing at peak vs nadir of Cry1” value in series [5] is listed as “greater relative impact on the clock mRNAs at the peak compared to the nadir”.

Values taken from patent US10759777B2, “Carbazole-containing amides, carbamates, and ureas as cryptochrome modulators” (Synchronicity Pharma, Inc., priority 2014, dated 2020).
